Ends that are not written are not given here.
Assays:
[1] = test system: human bronchial epithelial cells (BEAS-2B)
Procedure: (§1) The cytotoxicity of 73 synthetic peptides was evaluated using four human cell lines: human pancreatic ductal epithelial cells (HPNE), human embryonic kidney cells (HEK293T), human umbilical vein endothelial cells (HUVEC), and human bronchial epithelial cells (BEAS-2B). When cell density reached 70% confluence, the complete culture medium was replaced with serum-free maintenance medium, and peptides were added at a final concentration of 100 μM for 36 h. Control groups received only serum-free maintenance medium without peptides. Cell proliferation was assessed using the CCK-8 assay kit (Solarbio, CA1210) according to the manufacturer’s instructions.

[2] = test system: human pancreatic ductal epithelial cells (HPNE)
Procedure: as §1

[3] = test system: human embryonic kidney cells (HEK293T)
Procedure: as §1

[4] = test system: human umbilical vein endothelial cells (HUVEC)
Procedure: as §1

[5] = Electronic tongue analysis (Taste-Sensing System SA 402B); design: unit not given here; settings: reference solution 30 mM KCl + 0.3 mM tartaric acid as baseline, first measurement excluded; for Umami: sensor AAE; for Umami / Bitter / Sweet: detection threshold 0, room temperature; for Umami / Bitter / Sour / Salty: four replicates; for Sour: detection threshold -13, room temperature; for Salty: detection threshold -6, room temperature; for Sweet: measured five times
Method in brief: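 Samples were tested at 0.1 and 1.0 mg/mL on an SA 402B e-tongue fitted with sourness, saltiness, bitterness, sweetness and umami sensors, with 30 mM KCl/0.3 mM tartaric acid as reference and baseline. Thresholds were −13 for sour, −6 for salty and 0 for the rest. Runs at room temperature: four replicates, five for sweetness, first reading discarded.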

Row | Substance | Average cell viability, BEAS-2B [1] | Cell viability, BEAS-2B, Data1 [1] | Cell viability, BEAS-2B, Data2 [1] | Cell viability, BEAS-2B, Data3 [1] | Average cell viability, HPNE [2] | Cell viability, HPNE, Data1 [2] | Cell viability, HPNE, Data2 [2] | Cell viability, HPNE, Data3 [2] | Average cell viability, HEK293T [3] | Cell viability, HEK293T, Data1 [3] | Cell viability, HEK293T, Data2 [3] | Cell viability, HEK293T, Data3 [3] | Average cell viability, HUVEC [4] | Cell viability, HUVEC, Data1 [4] | Cell viability, HUVEC, Data2 [4] | Cell viability, HUVEC, Data3 [4] | Umami ([5]; peptide 0.1 mg/mL) | Umami ([5]; peptide 1 mg/mL) | Bitter ([5]; sensor C00, peptide 0.1 mg/mL) | Bitter ([5]; sensor C00, peptide 1 mg/mL) | other results
1 | SNDPVA [TaPep71] | 108.14 | 100.40 | 109.77 | 114.26 | 94.64 | 86.86 | 82.76 | 114.31 | 97.98 | 102.11 | 95.68 | 96.15 | 96.51 | 91.41 | 97.95 | 100.19 | 1.39 | -5.94 | 7.30 | 4.11 | Sour ([5]; sensor CA0, peptide 0.1 mg/mL): -2.77; Sour ([5]; sensor CA0, peptide 1 mg/mL): 14.75; Salty ([5]; sensor CT0, peptide 0.1 mg/mL): -20.93; Salty ([5]; sensor CT0, peptide 1 mg/mL): 9.59; Sweet ([5]; sensor GL1, peptide 0.1 mg/mL): 5.63; Sweet ([5]; sensor GL1, peptide 1 mg/mL): -5.65
2 | FPEQQD [TaPep16] | 95.65 | 98.50 | 96.11 | 92.32 | 104.83 | 100.13 | 113.61 | 100.73 | 100.13 | 105.99 | 97.00 | 97.38 | 101.44 | 102.74 | 107.69 | 93.88 | 1.15 | -5.22 | 7.29 | 3.65 | Sour ([5]; sensor CA0, peptide 0.1 mg/mL): -2.22; Sour ([5]; sensor CA0, peptide 1 mg/mL): 12.97; Salty ([5]; sensor CT0, peptide 0.1 mg/mL): -21.97; Salty ([5]; sensor CT0, peptide 1 mg/mL): 7.92; Sweet ([5]; sensor GL1, peptide 0.1 mg/mL): 4.77; Sweet ([5]; sensor GL1, peptide 1 mg/mL): -5.75
3 | PPLENT [TaPep39] | 115.22 | 118.05 | 113.86 | 113.76 | 99.87 | 95.44 | 90.95 | 113.21 | 100.06 | 96.81 | 97.19 | 106.18 | 107.56 | 101.22 | 113.36 | 108.09 | 0.99 | -5.89 | 7.69 | 2.99 | Sour ([5]; sensor CA0, peptide 0.1 mg/mL): -1.65; Sour ([5]; sensor CA0, peptide 1 mg/mL): 15.66; Salty ([5]; sensor CT0, peptide 0.1 mg/mL): -18.68; Salty ([5]; sensor CT0, peptide 1 mg/mL): 12.96; Sweet ([5]; sensor GL1, peptide 0.1 mg/mL): 6.53; Sweet ([5]; sensor GL1, peptide 1 mg/mL): -7.82
4 | KTYSA [TaPep49] | 100.60 | 99.20 | 96.41 | 106.18 | 94.58 | 82.96 | 86.76 | 114.01 | 96.97 | 99.94 | 94.54 | 96.44 | 102.29 | 99.15 | 103.94 | 103.78 | 0.96 | -3.34 | 7.26 | 2.53 | Sour ([5]; sensor CA0, peptide 0.1 mg/mL): -7.10; Sour ([5]; sensor CA0, peptide 1 mg/mL): 8.30; Salty ([5]; sensor CT0, peptide 0.1 mg/mL): -15.59; Salty ([5]; sensor CT0, peptide 1 mg/mL): 11.00; Sweet ([5]; sensor GL1, peptide 0.1 mg/mL): 7.69; Sweet ([5]; sensor GL1, peptide 1 mg/mL): -3.73
5 | LQPSLEH [TaPep59] | 100.60 | 96.61 | 109.87 | 95.31 | 92.71 | 105.62 | 84.46 | 88.05 | 98.64 | 100.88 | 99.94 | 95.11 | 104.79 | 97.39 | 106.49 | 110.48 | 1.85 | -6.02 | 7.83 | 1.90 | Sour ([5]; sensor CA0, peptide 0.1 mg/mL): -3.89; Sour ([5]; sensor CA0, peptide 1 mg/mL): 15.44; Salty ([5]; sensor CT0, peptide 0.1 mg/mL): -19.53; Salty ([5]; sensor CT0, peptide 1 mg/mL): 15.85; Sweet ([5]; sensor GL1, peptide 0.1 mg/mL): 6.34; Sweet ([5]; sensor GL1, peptide 1 mg/mL): -7.32
6 | TQEVVN [TaPep25] | 110.07 | 118.34 | 103.39 | 108.47 | 92.98 | 92.95 | 81.96 | 104.03 | 100.16 | 103.15 | 98.42 | 98.90 | 92.52 | 90.21 | 89.33 | 98.03 | 1.53 | -3.13 | 7.01 | 3.50 | Sour ([5]; sensor CA0, peptide 0.1 mg/mL): -6.12; Sour ([5]; sensor CA0, peptide 1 mg/mL): 7.84; Salty ([5]; sensor CT0, peptide 0.1 mg/mL): -23.02; Salty ([5]; sensor CT0, peptide 1 mg/mL): 5.51; Sweet ([5]; sensor GL1, peptide 0.1 mg/mL): 8.12; Sweet ([5]; sensor GL1, peptide 1 mg/mL): -3.53
